Test results published in patent publication US7449465B2, “Triazolopyrimidine derivatives as glycogen synthase kinase 3 inhibitors” (Janssen Pharmaceutica, N.V., priority 2003, dated 2008).

Experiments:
[1] = target: GSK3β (Homo sapiens, UniProt P49841); assay: GSK3beta assay (SPA, biotinylated phosphorylated CREB peptide, ATP-P33); format: biochemical; settings: ranges of pIC50 (−log IC50 (M)); 1 μM ATP, room temperature, one hour; read-out: GSK3b pIC50 (converted)
Protocol: (§1) GSK3beta assays were performed at room temperature in a 100 μl reaction volume of 25 mM Tris (pH 7.4) containing 10 mM MgCl2.6H2O, 1 mM DTI, 0.1 mgiml BSA, 5% glycerol and containing 5.7 ng/μl GSK3β, 5 μM biotinylated phosphorylated CREB peptide, 1 μM ATP, 0.85 μCi/ml ATP-P^33 and a suitable amount of a test compound of formula (I). After one hour, the reaction was terminated by adding 70 μl of Stop mix (0.1 mM ATP, 5 mg/ml streptavidin coated PVT SPA bead pH 11.0). The beads to which the phosphorylated CREB peptide is attached were allowed to settle overnight and the radioactivity of the beads was counted in a microtiterplate scintillation counter and compared with the results obtained in a control experiment (without the presence of a test compound) in order to determine the percentage of GSK3β inhibition. The IC50 value, i.e. the concentration (M) of the test compound at which 50% of GSK3β is inhibited, was calculated from the dose response curve obtained by performing the above-described GSK3β assay in the presence of different amounts of the test compound.

[2] = target: GSK3alpha (Homo sapiens, UniProt P49840); assay: GSK3alpha assay (same as the GSK3beta assay, 0.25 ng/μl GSK3alpha); format: biochemical; settings: ranges of pIC50 (−log IC50 (M)), 1 μM ATP, read-out: GSK3a pIC50 (converted)
Protocol: as §1
The GSK3alpha assay was performed in the same way as described above for the GSK3beta assay except for the concentration of GSK3alpha which is 0.25 ng/μl.

Chain of GSK3β (P49841 whole entry, species assumed): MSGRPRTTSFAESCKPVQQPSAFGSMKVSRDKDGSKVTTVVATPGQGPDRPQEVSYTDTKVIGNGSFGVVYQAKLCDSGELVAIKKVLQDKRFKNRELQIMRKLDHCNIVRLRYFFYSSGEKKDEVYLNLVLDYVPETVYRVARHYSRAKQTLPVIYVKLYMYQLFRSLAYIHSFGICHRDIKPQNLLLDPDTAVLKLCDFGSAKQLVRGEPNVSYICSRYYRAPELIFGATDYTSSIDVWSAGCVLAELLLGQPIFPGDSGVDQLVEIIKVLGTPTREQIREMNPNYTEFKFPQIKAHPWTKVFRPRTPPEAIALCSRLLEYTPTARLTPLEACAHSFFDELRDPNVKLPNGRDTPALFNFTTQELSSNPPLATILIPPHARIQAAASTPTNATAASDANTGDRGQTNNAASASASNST
Chain of GSK3alpha (P49840 whole entry, species assumed): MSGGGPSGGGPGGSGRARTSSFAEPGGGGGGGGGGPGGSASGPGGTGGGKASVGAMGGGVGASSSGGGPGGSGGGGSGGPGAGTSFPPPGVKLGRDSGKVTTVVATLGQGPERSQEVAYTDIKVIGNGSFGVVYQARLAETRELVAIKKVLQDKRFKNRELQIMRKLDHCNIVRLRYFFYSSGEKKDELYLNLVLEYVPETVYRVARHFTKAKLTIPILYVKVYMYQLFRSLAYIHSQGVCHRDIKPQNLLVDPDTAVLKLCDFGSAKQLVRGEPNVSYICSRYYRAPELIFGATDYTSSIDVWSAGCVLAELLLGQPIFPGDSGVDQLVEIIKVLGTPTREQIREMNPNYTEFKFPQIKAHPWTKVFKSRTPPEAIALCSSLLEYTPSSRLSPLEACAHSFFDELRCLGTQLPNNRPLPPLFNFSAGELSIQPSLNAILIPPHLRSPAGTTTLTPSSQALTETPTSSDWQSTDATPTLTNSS

Structure (SMILES)	IC50 [1]	IC50 [2]	melting point
CC(=O)NCc1cccc(-n2nnc3cnc(Nc4cccc(-c5cnco5)c4)nc32)c1 [Compound 115]	< 1e-08 M	< 1e-08 M	156 to 160 °C
Fc1cccc(-n2nnc3cnc(Nc4cccc(-c5cccnc5)c4)nc32)c1 [Compound 30]	< 1e-08 M	< 1e-08 M	208 to 212 °C
OCc1cccc(-n2nnc3cnc(Nc4cccc(-c5cnco5)c4)nc32)c1 [Compound 96]	< 1e-08 M	< 1e-08 M	210 to 214 °C
CN1CCN(c2ccc(Nc3ncc4nnn(-c5cccc(CC#N)c5)c4n3)cc2)CC1 [Compound 88]	< 1e-08 M	< 1e-08 M	210 to 212 °C
O=c1[nH]nc(-c2cccc(Nc3ncc4nnn(-c5cccc(F)c5)c4n3)c2)[nH]1 [Compound 1]	< 1e-08 M	< 1e-08 M	> 260 °C
COCC(=O)NCc1cccc(-n2nnc3cnc(Nc4cccc(-c5cnco5)c4)nc32)c1 [Compound 122]	< 1e-08 M	< 1e-08 M	210 to 214 °C
Fc1cccc(-n2nnc3cnc(Nc4cccc(-c5cnccn5)c4)nc32)c1 [Compound 2]	< 1e-08 M	< 1e-08 M	> 260 °C
Cn1nccc1-c1cccc(Nc2ncc3nnn(-c4ccccc4)c3n2)c1 [Compound 9]	< 1e-08 M	< 1e-08 M	216 °C
